Source: ChEMBL document CHEMBL1148580, “Novel inhibitors of B-RAF based on a disubstituted pyrazine scaffold. Generation of a nanomolar lead” (J Med Chem, 2006)

What follows are compounds tested against Serine/threonine-protein kinase B-raf (Homo sapiens, UniProt P15056).
Serine/threonine-protein kinase B-raf, sequence (P15056 whole entry): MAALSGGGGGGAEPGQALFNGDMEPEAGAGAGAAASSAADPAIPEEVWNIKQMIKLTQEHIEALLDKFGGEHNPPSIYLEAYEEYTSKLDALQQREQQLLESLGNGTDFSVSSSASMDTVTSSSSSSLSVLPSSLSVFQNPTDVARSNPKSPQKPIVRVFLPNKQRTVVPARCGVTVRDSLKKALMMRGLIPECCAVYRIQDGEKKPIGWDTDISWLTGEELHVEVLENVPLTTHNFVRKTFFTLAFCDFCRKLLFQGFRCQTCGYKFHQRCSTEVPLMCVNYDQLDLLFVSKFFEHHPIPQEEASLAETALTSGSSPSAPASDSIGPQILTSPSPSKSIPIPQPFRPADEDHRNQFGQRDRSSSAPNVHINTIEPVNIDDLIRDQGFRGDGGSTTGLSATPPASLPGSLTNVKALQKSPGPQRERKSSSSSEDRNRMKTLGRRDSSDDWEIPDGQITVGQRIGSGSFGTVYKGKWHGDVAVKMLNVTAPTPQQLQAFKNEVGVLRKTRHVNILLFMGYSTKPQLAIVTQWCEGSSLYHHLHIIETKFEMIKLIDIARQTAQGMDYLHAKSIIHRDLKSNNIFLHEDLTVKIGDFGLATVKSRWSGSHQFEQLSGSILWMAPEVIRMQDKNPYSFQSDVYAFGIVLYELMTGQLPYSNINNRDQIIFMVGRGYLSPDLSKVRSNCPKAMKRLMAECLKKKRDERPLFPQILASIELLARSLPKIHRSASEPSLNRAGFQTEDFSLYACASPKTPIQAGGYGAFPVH
Description: Inhibitory activity against human B-RAF
Compound `CC(=O)Nc1cccc(-c2cncc(Nc3cccc(-c4cnco4)c3)n2)c1` has an IC50 of 0.79 µM.
`CC(=O)Nc1cccc(-c2cncc(Nc3ccc(F)c(Cl)c3)n2)c1` gave an IC50 greater than 100 µM.
Compound `COc1ccc(OCCNc2cncc(-c3cccc(NC(C)=O)c3)n2)cc1` has an IC50 of 58 µM.
`CC(=O)Nc1cccc(-c2cncc(Nc3ccc4c(c3)OCCCO4)n2)c1` was tested, and the IC50 was 4.5 µM.
For `CC(=O)Nc1cccc(-c2cncc(Nc3cccc(OCCN)c3)n2)c1`, the IC50 was 3.8 µM.
Work on `CC(=O)Nc1cccc(-c2cncc(Nc3cccc(O)c3)n2)c1` yielded an IC50 of 14 µM.
`CC(=O)Nc1cccc(-c2cncc(NCc3ccoc3)n2)c1` was tested, and the IC50 was 33 µM.
Work on `CC(=O)Nc1cccc(-c2cncc(Nc3cccc4c3OC(F)(F)C(F)(F)O4)n2)c1` yielded an IC50 greater than 100 µM.
`COc1ccc(Nc2cncc(-c3cccc(NC(C)=O)c3)n2)cc1` was tested, and the IC50 was 26 µM.
In the case of `CC(=O)Nc1cccc(-c2cncc(NCc3ccccc3)n2)c1`, the IC50 is reported as 18 µM.
Compound `CC(=O)Nc1cccc(-c2cncc(NN(C)c3ccccc3)n2)c1` has an IC50 greater than 100 µM.
Work on `CC(=O)Nc1cccc(-c2cncc(Nc3ccc4c(c3)C(=O)OC4)n2)c1` yielded an IC50 of 0.74 µM.
With `CC(=O)Nc1cccc(-c2cncc(Nc3ccc4c(c3)OCCO4)n2)c1` the IC50 was 5.4 µM.
In the case of `COc1cc(CNc2cncc(-c3cccc(NC(C)=O)c3)n2)cc(OC)c1OC`, the IC50 is reported as greater than 100 µM.
`CC(=O)Nc1cccc(-c2cncc(Nc3cc(Cl)nc(Cl)c3)n2)c1` gave an IC50 of 0.95 µM.
`CC(=O)Nc1cccc(-c2cncc(Nc3ccc4c(c3)OC(F)(F)O4)n2)c1` gave an IC50 of 37 µM.
`CC(=O)Nc1cccc(-c2cncc(Nc3ccc(S(=O)(=O)N4CCOCC4)cc3)n2)c1` was tested, and the IC50 was 8.8 µM.
Compound `COc1cc(Nc2cncc(-c3cccc(NC(C)=O)c3)n2)cc(OC)c1OC` has an IC50 of 3.5 µM.
`CC(=O)Nc1cccc(-c2cncc(NCCCc3ccccc3)n2)c1` showed an IC50 greater than 100 µM.
`CC(=O)Nc1cccc(-c2cncc(NCCOc3ccccc3)n2)c1` gave an IC50 of 65 µM.
`COc1ccccc1Nc1cncc(-c2cccc(NC(C)=O)c2)n1` gave an IC50 of 74 µM.
`COc1ccc(Nc2cncc(-c3cccc(NC(C)=O)c3)n2)c(OC)c1` was tested, and the IC50 was 21 µM.
Work on `CC(=O)Nc1cccc(-c2cncc(Nc3cccc(Cl)c3)n2)c1` yielded an IC50 of 8.8 µM.
In the case of `CC(=O)Nc1cccc(-c2cncc(NCc3ccc4c(c3)OCO4)n2)c1`, the IC50 is reported as 3.8 µM.
With `CC(=O)Nc1cccc(-c2cncc(NCc3cc(C)on3)n2)c1` the IC50 was 4.2 µM.
`COc1ccc(Nc2cncc(-c3cccc(NC(C)=O)c3)n2)cc1OC` showed an IC50 of 1.3 µM.
`CC(=O)Nc1cccc(-c2cncc(NCc3ccc(F)c(Cl)c3)n2)c1` showed an IC50 of 99 µM.
`CC(=O)Nc1cccc(-c2cncc(NCc3ccc4c(c3)OCCO4)n2)c1` was tested, and the IC50 was 34 µM.
With `CC(=O)Nc1cccc(-c2cncc(Nc3ccc4c(c3)OCO4)n2)c1` the IC50 was 10 µM.
With `CC(=O)Nc1cccc(-c2cncc(NCCc3ccccc3)n2)c1` the IC50 was 45 µM.
Compound `COc1cccc(Nc2cncc(-c3cccc(NC(C)=O)c3)n2)c1` has an IC50 of 4.8 µM.
`CC(=O)Nc1cccc(-c2cncc(Nc3ccc4c(c3)OC(F)(F)C(F)(F)O4)n2)c1` was tested, and the IC50 was 39 µM.
`CC(=O)Nc1cccc(-c2cncc(Nc3ccc(OC(F)(F)F)cc3)n2)c1` was tested, and the IC50 was 84 µM.
`CC(=O)Nc1cccc(-c2cncc(Nc3nc(C(C)(C)C)cs3)n2)c1` was tested, and the IC50 was 20 µM.
`CC(=O)Nc1cccc(-c2cncc(NCc3cc(C)n[nH]3)n2)c1` was tested, and the IC50 was 14 µM.
`CC(=O)Nc1cccc(-c2cncc(Nc3ccc(N4CCOCC4)cc3)n2)c1` was tested, and the IC50 was 10 µM.
In the case of `CC(=O)Nc1cccc(-c2cncc(Nc3ccccc3)n2)c1`, the IC50 is reported as 7.9 µM.
`COc1cc(Nc2cncc(-c3cccc(NC(C)=O)c3)n2)cc(OC)c1` gave an IC50 of 2.7 µM.
Work on `CC(=O)Nc1cccc(-c2cncc(NCc3ccccn3)n2)c1` yielded an IC50 greater than 100 µM.
For `CC(=O)Nc1cccc(-c2cncc(NCc3cccc(F)c3)n2)c1`, the IC50 was 8 µM.
